Data on four compounds can be found in ChEMBL document CHEMBL1132055, “1-Aminoisoquinoline as benzamidine isoster in the design and synthesis of orally active thrombin inhibitors” (Bioorg Med Chem Lett, 1999).

Each structure is given as a SMILES string.

One assay addresses Serine protease 1 (Homo sapiens, UniProt P07477). The experiment in a line: Compound was tested for inhibitory activity against trypsin.
The next assay relates to Caco-2. The settings on record: Homo sapiens.
The target in another assay is Prothrombin (Homo sapiens, UniProt P00734). The experiment in a line: Compound was tested for inhibitory activity against thrombin.

Serine protease 1, sequence (P07477 whole entry): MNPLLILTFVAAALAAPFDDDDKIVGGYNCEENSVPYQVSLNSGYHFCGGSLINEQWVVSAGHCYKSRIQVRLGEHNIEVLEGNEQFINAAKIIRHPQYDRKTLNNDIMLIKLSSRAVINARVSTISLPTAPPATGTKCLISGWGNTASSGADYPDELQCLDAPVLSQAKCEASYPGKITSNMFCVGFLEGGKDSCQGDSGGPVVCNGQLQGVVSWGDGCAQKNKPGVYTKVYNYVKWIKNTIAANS
Description for Caco-2: Compound was tested for its effect on increasing the permeability of Caco-2 cells

`COc1cc(C)c(S(=O)(=O)N[C@@H](CC(=O)OC(C)(C)C)C(=O)NC(Cc2ccc3c(N)nccc3c2)C(=O)N2CCCCC2)c(C)c1C` (stereo partly specified) gave a half-maximal inhibitory concentration (IC50) against Serine protease 1 of 378 µM. `Nc1nccc2cc(CC(NC(=O)CNS(=O)(=O)c3ccc4ccccc4c3)C(=O)N3CCCCC3)ccc12` (stereo unspecified) came in with a Papp with Caco-2 of 19 nm/s. For the same compound, the IC50 amounted to 55 µM against Prothrombin and 255 µM against Serine protease 1. `Cc1ccc(S(=O)(=O)NCC(=O)NC(Cc2ccc3c(N)nccc3c2)C(=O)N2CCCCC2)cc1` (stereo unspecified) registered an IC50 on Prothrombin of 357 µM. `Cc1c(C)c(S(=O)(=O)NCC(=O)NC(Cc2ccc3c(N)nccc3c2)C(=O)N2CCCCC2)c(C)c2c1OC(C)(C)CC2` (stereo unspecified) displayed a Papp in the assay with Caco-2 of 37 nm/s.

For orientation: IC50 means the concentration needed to halve the response being measured. Read a high IC50 as a need for much substance. Broadly, the Papp is the rate of passage across a membrane or cell layer, normalised by area and donor concentration.
